In patent publication US20130245110A1, “USE FOR CANNABINOIDS” (priority 2008, published 2013):
Several values for one entry are separate records, joined by “and”; a condition that tells them apart may be missing. Identical values can stand only once.

Experiments:
C57B1/6 ob/ob mouse [1] = assay: Thermic effect of a Complan meal: 3-hour energy expenditure; type: in vivo; parameters: unit not given here; settings: ob/ob mice, day 17
3T3L1 cells = assay: Induction of adipocyte differentiation (Oil red O); type: cell-based; settings: treated for 8 days
Procedure: In vitro vascular studies were carried out in rat isolated aortae by wire myography. PPARγ activation was investigated using reporter gene assays, a PPARγ competition-binding assay and an adipogenesis assay.
Cells were fixed and stained with Oil red O to identify fat droplets, to the presence of which indicates differentiation of fibroblasts into adipocytes. […] […].

aorta = assay: Chronic treatment of rats, vascular responses in isolated arteries; type: in vivo, rat; settings: aorta of rats treated for 2 weeks
C57B1/6 ob/ob mouse [2] = assay: Plasma triglycerides; type: in vivo; settings: ob/ob mice; CBD given on its own (3.0 mg/kg)
Procedure: The following are a battery of tests used to elicit the effects of drugs on diseases including type I or II diabetes, obesity, dyslipidaemia, related metabolic disorders and cardiovascular disease. • a) Body weight: Bodyweights of all mice were measured twice weekly during the study. • b) Food intake: Food intake was measured by weight difference taking account of food wastage in the bottom of the cage. • c) Measurement of water consumption: Water intake was calculated daily for each animal, during the treatment period, by weight difference of the water bottle. • d) Oral Glucose Tolerance Test (OGTT): Glucose was dissolved in water (3 g/10 ml) and given to the mice orally at a rate of 3 g/kg. […] Samples were then analysed automatically using a SpectraMax-250 and SoftMax Pro software. • f) Plasma preparation: Blood was collected for the measurement of i) plasma insulin, ii) cholesterol, iii) free fatty acids or iv) triglyceride concentration. • i. Plasma insulin analysis: Plasma insulin was measured using 5 μl of plasma, compared with a mouse insulin standard using a 96-well micro-assay plate • ii. […] The samples were mixed and incubated for 5 minutes before reading at dual wavelengths of 500 and 660 nm. • iii. Plasma free fatty acids: 5 μl samples of plasma were measured into a 96-well assay plate, to which was added 0.2 ml of reagents NEFA C • iv. […]

C57B1/6 ob/ob mouse [3] = assay: Fed plasma HDL-cholesterol; type: in vivo; settings: ob/ob mice; for Fed HDL cholesterol day 28: individual values; for percentage HDL cholesterol day 28: HDL as percentage of total cholesterol
Procedure: The following are a battery of tests used to elicit the effects of drugs on diseases including type I or II diabetes, obesity, dyslipidaemia, related metabolic disorders and cardiovascular disease. • a) Body weight: Bodyweights of all mice were measured twice weekly during the study. • b) Food intake: Food intake was measured by weight difference taking account of food wastage in the bottom of the cage. • c) Measurement of water consumption: Water intake was calculated daily for each animal, during the treatment period, by weight difference of the water bottle. • d) Oral Glucose Tolerance Test (OGTT): Glucose was dissolved in water (3 g/10 ml) and given to the mice orally at a rate of 3 g/kg. […] Blood samples were also taken at −30 minutes for insulin analysis. • e) Blood Glucose analysis: Duplicate 20 μl samples of blood of were taken for each individual sample and placed in a 96-well assay plate. To each well was added 180 μl aliquots of glucose oxidase reagent. Samples were mixed and then left for approximately 30 minutes. Samples were then analysed automatically using a SpectraMax-250 and SoftMax Pro software. • f) Plasma preparation: Blood was collected for the measurement of i) plasma insulin, ii) cholesterol, iii) free fatty acids or iv) triglyceride concentration. • i. Plasma insulin analysis: Plasma insulin was measured using 5 μl of plasma, compared with a mouse insulin standard using a 96-well micro-assay plate • ii. Plasma cholesterol analysis: To each sample was added 200 μl of infinity cholesterol liquid stable reagent. The samples were mixed and incubated for 5 minutes before reading at dual wavelengths of 500 and 660 nm. • iii. Plasma free fatty acids: 5 μl samples of plasma were measured into a 96-well assay plate, to which was added 0.2 ml of reagents NEFA C • iv. Plasma triglycerides analysis: To each well 200 μl aliquots of triglycerides reagent. […] Comparison with a calibrated standard allowed identification of types of tissue by their density. Dedicated software was using to quantify amounts of bone and fat. The mice were lightly anaesthetised, sufficient to keep them quiescent during this non-invasive technique. • h) Energy expenditure measurements: Energy expenditure was measured by open circuit indirect calorimetry with mice in their home cages. For studies of 24 h energy expenditure, mice were dosed with their allocated treatment and then measurements commenced. […] Plasma leptin was measured in fed mice using the Crystal Chem Elisa assay. • j) Plasma adiponectin: Adiponectin exerts some of its weight reduction effects via the brain. This is similar to the action of leptin, but the two hormones perform complementary actions, and can have additive effects. Plasma adiponectin was measured in overnight fasted mice using the 96-well B-Bridge Elisa assay. • k) Plasma HDL-cholesterol: Plasma HDL-cholesterol was measured in fed mice using the kit from Trinity Biotech. • l) 24 h blood glucose profile: This was determined in order to ensure that changes in the diurnal control of blood glucose were detected. Thus blood samples were obtained at three hourly intervals throughout a continuous 24 h period. • m) Plasma haemoglobin AIC: Samples (10 μl) were analysed using the AIC. […] The homogenate was then extracted overnight at 4° C. and centrifuged at 2000 g for 5 min. • o) Pancreatic islet histology: […] sections were cut using a Leica RM2125 rotary microtome, transferred to positively-charged glass slides and dried overnight at 42° C. Morphology was assessed using hematoxylin and eosin staining. • p) Liver glycogen: After centrifugation (3000×g for 15 min), an aliquot of the supernatant (10 μl) is assayed using the glucose oxidase method. […] 1 ml of chloroform is added and tubes vortexed and left at 4° C. for 2 h with vortexing every 30 min. 200 μl of 0.9% sodium chloride is added and after thorough vortexing, the mixture is centrifuged at 300×g for 5 min.

[4] = test system: dietary induced obese (DIO) mouse model; assay: Thermic response to food (energy expenditure after Complan meal), chronic dosing study; type: in vivo; parameters: Thermic response to food: unit not given here; settings: for Thermic response to food: listed as pure THCV
Source text: Once the acute studies were complete the mice were grouped in two groups of five mice for the chronic dosing study. Dosing was daily by oral gavage at 09:00-10:00.
Energy expenditure consists of basal metabolic rate, exercise-induced energy expenditure, and non-exercise thermogenesis. The latter is the most likely area to be affected by anti-obesity agents. Non-exercise thermogenesis includes the thermic response to food, which in rodents can be measured by examining energy expenditure in response to a meal. This was measured after an oral dose of complan (see methods).

[5] = 3.0 mg·kg−1 daily oral gavage (combination: both 3.0)
[6] = 0.3 mg·kg−1 daily oral gavage (combination: both 0.3)

SMILES: C=C(C)[C@@H]1CCC(C)=C[C@H]1c1c(O)cc(CCCCC)cc1O [CBD, cannabidiol]
- Thermic effect of a meal: 3-hour energy expenditure per animal (C57B1/6 ob/ob mouse [1]; 3.0 mg/kg daily oral gavage (combination: both 3.0 mg/kg), listed as pure CBD): did not significantly increase energy expenditure
- Differentiation of fibroblasts into adipocytes (Oil Red O staining of fat droplets) (3T3L1 cells): signs of fat droplet accumulation were apparent at all concentrations tested
- Maximal response to methoxamine (aorta): 1.63±0.21 g increase tension
- Potency of acetylcholine (pEC50) (aorta): 5.37±0.40
- Plasma triglycerides (C57B1/6 ob/ob mouse [2]): no effect on plasma triglycerides
- Fed HDL cholesterol day 28 (C57B1/6 ob/ob mouse [3]; [5]): increasing the amount and 3.31 and 3.00 and 3.36 and 3.63 and 2.98 and 3.38 and 3.18
- Fed HDL cholesterol day 28 (C57B1/6 ob/ob mouse [3]; 3.0 mg·kg−1 daily oral gavage (combination: both 3.0), listed as Pure CBD): increasing the plasma HDL-cholesterol concentration

SMILES: CCCc1cc(O)c2c(c1)OC(C)(C)[C@@H]1CCC(C)=C[C@@H]21 [THCV, tetrahydrocannabivarin]
- Thermic effect of a meal: 3-hour energy expenditure per animal (C57B1/6 ob/ob mouse [1]; 0.3 mg/kg daily oral gavage (combination: both 0.3 mg/kg)): 8.18 and 7.04
- Thermic effect of a meal: 3-hour energy expenditure per animal (C57B1/6 ob/ob mouse [1]; 3.0 mg/kg daily oral gavage (combination: both 3.0 mg/kg)): 8.94 and 8.79
- Thermic effect of a meal: 3-hour energy expenditure per animal (C57B1/6 ob/ob mouse [1]; 3.0 mg/kg daily oral gavage (combination: both 3.0 mg/kg), listed as pure THCV): significant effect
- Thermic response to food ([4]; DIO mice, days 15-17, 0.3 mg·kg−1 p.o., Hour 0.22): 0.67 and 0.91 and 1.26
- Thermic response to food ([4]; DIO mice, days 15-17, 0.3 mg·kg−1 p.o., Hour 0.44): 1.78 and 1.70 and 1.98
- Thermic response to food ([4]; DIO mice, days 15-17, 0.3 mg·kg−1 p.o., Hour 0.67): 2.30 and 2.06 and 2.49
- Thermic response to food ([4]; DIO mice, days 15-17, 0.3 mg·kg−1 p.o., Hour 0.89): 2.51 and 2.42
- Thermic response to food ([4]; DIO mice, days 15-17, 0.3 mg·kg−1 p.o., Hour 1.11): 2.51 and 2.74 and 2.64
- Thermic response to food ([4]; DIO mice, days 15-17, 0.3 mg·kg−1 p.o., Hour 1.33): 2.50 and 2.82 and 2.67
- Thermic response to food ([4]; DIO mice, days 15-17, 0.3 mg·kg−1 p.o., Hour 1.56): 2.53 and 2.81 and 3.13
- Thermic response to food ([4]; DIO mice, days 15-17, 0.3 mg·kg−1 p.o., Hour 1.78): 2.54 and 2.76 and 3.31
- Thermic response to food ([4]; DIO mice, days 15-17, 0.3 mg·kg−1 p.o., Hour 2.00): 2.45 and 2.62 and 3.18
- Thermic response to food ([4]; DIO mice, days 15-17, 0.3 mg·kg−1 p.o., Hour 2.22): 2.61 and 2.74 and 3.44
- Thermic response to food ([4]; DIO mice, days 15-17, 0.3 mg·kg−1 p.o., Hour 2.44): 2.71 and 2.74 and 3.18
- Thermic response to food ([4]; DIO mice, days 15-17, 0.3 mg·kg−1 p.o., Hour 2.67): 2.66 and 2.83 and 3.10
- Thermic response to food ([4]; DIO mice, days 15-17, 0.3 mg·kg−1 p.o., Hour 2.89): 2.71 and 3.01 and 3.09
- Thermic response to food ([4]; DIO mice, days 15-17, 0.3 mg·kg−1 p.o., Hour 3.11): 2.68 and 3.16 and 3.02
- Thermic response to food ([4]; DIO mice, days 15-17, 0.3 mg·kg−1 p.o., Hour 3.33): 2.68 and 3.34 and 3.04
- Thermic response to food ([4]; DIO mice, days 15-17, 0.3 mg·kg−1 p.o., Hour 4.00): 2.70 and 3.49 and 3.13
- Thermic response to food, effect in words ([4]; DIO mice, days 15-17, chronic-study doses (rimonabant 10, pure THCV 0.3 mg·kg−1 p.o.)): have an affect over 2 h
- Thermic response to food ([4]; mouse, in vivo, po): 2.61 and 3.49 and 3.02 and 2.43 and 3.48 and 3.03
- Fed HDL cholesterol day 28 (C57B1/6 ob/ob mouse [3]; [6]): 2.16 (3×) and 2.35 and 2.33 and 2.21 and 2.25 and 2.14
- Fed HDL cholesterol day 28 (C57B1/6 ob/ob mouse [3]; [5]): 2.17 and 2.16 and 2.24 and 2.51 and 2.98 and 2.94 and 2.57 and 2.28
- percentage HDL cholesterol day 28 (C57B1/6 ob/ob mouse [3]; [6]): 30.4% and 25.1% and 33.6% and 39.3% and 37.5% and 34.3% and 37.9% and 38.0%
- percentage HDL cholesterol day 28 (C57B1/6 ob/ob mouse [3]; [5]): 34.5% and 31.1% and 34.0% and 40.4% and 41.3% and 45.6% and 33.6% and 32.4%
